Columns and labels:
HSF1 regulated genes [1] = assay: Example 2 in vivo pharmacodynamic study via subcutaneous dosing, cortex: expression of genes upregulated by HSF1 activation; design: species or system mouse; settings: for Dlg4 gene induction / Dnajba gene induction / Hspa1a gene induction / Hspa8 gene induction / Syn1 gene induction: wildtype mouse cortex, 5 mg/kg s.c. once daily 7 days, compared to Gapdh
Description: (§1) Wildtype mice (3 per group) were dosed subcutaneously at 0, 0.5, 1.5, 5 and 10 mg/kg (6aS)-6-methyl-5,6,6a,7-tetrahydro-4H-dibenzo[de,g]quinoline-10,11-diol hydrochloride for 7 days once daily. One animal in the 10 mg/kg dosing group was actually dosed 15 mg/kg on Day 1. To prepare the dosing solutions, (6aS)-6-methyl-5,6,6a,7-tetrahydro-4H-dibenzo[de,g]quinoline-10,11-diol was pre-weighed into bijous and stored in foil.

NRF2 [2] = assay: Example 1 in vivo pharmacodynamic study via subcutaneous dosing: expression of genes upregulated by NRF2 activation; design: species or system mouse; settings: wildtype mice
Description: as §1

HSF1 regulated genes [3] = assay: Example 1 in vivo pharmacodynamic study via subcutaneous dosing: expression of genes upregulated by HSF1 activation; design: species or system mouse
Description: as §1

TDP-43^Q331K mouse model [4] = assay: Example 4 catwalk gait analysis; assay type: in vivo; settings: TDP-43^Q331K mice
Description: (§2) Following genotyping, transgenic females were block randomized into three different dosing groups: vehicle once daily, 2.5 mg/kg (6aS)-6-methyl-5,6,6a,7-tetrahydro-4H-dibenzo[de,g]quinoline-10,11-diol twice daily and 5 mg/kg (6aS)-6-methyl-5,6,6a,7-tetrahydro-4H-dibenzo[de,g]quinoline-10,11-diol once daily. The doses were selected based on results of previous internal studies. Animals were weighed daily before dosing and dosed subcutaneously at 10 ml/kg with a solution of 0.5 mg/ml (6aS)-6-methyl-5,6,6a,7-tetrahydro-4H-dibenzo[de,g]quinoline-10,11-diol for the 5 mg/kg dose and 0.25 mg/ml for the 2.5 mg/kg dose. Where animals were dosed twice a day, the doses were at least 6 hours apart and the dosing solution was freshly made for the second dose of the day.
The study was designed with two main cohorts of mice. One cohort was dosed from 25 days of age until 6 months of age and mice had behavioral testing throughout the study and consisted of 14 mice per group. The other satellite cohort was dosed from 25 days of age until 3 months of age, with no behavioral testing and consisted of 6 mice per group for target engagement and histological assessment. Behavioral tests that were carried out during the experiment were: accelerated rotarod test, gait analysis, and electrophysiology.
Gait analysis was carried out at 3 months and 6 months of age using the catwalk gait analysis system 7.1 (Noldus Information Technology B.V., Netherlands) and analyzed using Catwalk software 7.1. The software calculated many different gait parameters such as stride length, base of support (BOS) and swing time as well as step patterns and percentage of time spent on 2, 3 or 4 paws.
On the day of the test mice were placed on the glass runway and allowed to run freely back and forth. About 6 straight, consistent runs were recorded by the camera for each mouse. The 3 best runs with the closest total run time were selected for each mouse for analysis. For these three runs, the paw prints were labelled in successive frames using the software, which then analyzed multiple gait parameters for each of the runs. Using Excel, the average of all three runs per mouse was calculated, followed by the average per group for each of the gait parameters.
Gait analysis was performed using the catwalk system (Noldus) at both 3 and 6 months of age in 8 mice per group per timepoint. Traditionally in this model, the base of support increases with age, as shown in FIG. 9-13, represented the waddling or ‘swimming’ gait described in this strain.

TDP-43^Q331K mouse model [5] = assay: Example 4 accelerating rotarod test; assay type: in vivo; settings: TDP-43^Q331K mice, 5 mg/kg once daily s.c., one time point (19 weeks of age)
Description: as §2
The study was designed with two main cohorts of mice. One cohort was dosed from 25 days of age until 6 months of age and mice had behavioral testing throughout the study and consisted of 14 mice per group. […]
Mice were tested on the accelerating rotarod (Jones & Roberts for mice, model 7650) once a week from 40 days of age until the end of the study. […] Mice are placed on the rotarod and the time taken to fall from the rotarod (latency to fall) is recorded. For each day of testing, each mouse was tested twice on the rotarod with a small rest in between trials and the best result from the two trials is recorded. […]

NRF2 [6] = assay: Example 2 in vivo pharmacodynamic study via subcutaneous dosing, cortex: expression of genes upregulated by NRF2 activation; settings: wildtype mouse cortex, 5 mg/kg s.c. once daily 7 days, compared to Gapdh
Description: as §1

dopamine receptors = settings: background description; cited from earlier work
[7] = 5 mg/kg s.c. once daily 7 days, 24 hours post final dose, compared to Gapdh
[8] = 10 mg/kg s.c. once daily 7 days, 24 hours post final dose, compared to Actb
[9] = wildtype mice, 1.5 mg/kg s.c. once daily 7 days, 24 hours post final dose, compared to Actb
[10] = wildtype mice, 5 mg/kg s.c. once daily 7 days, 24 hours post final dose, compared to Gapdh
[11] = wildtype mice, 10 mg/kg s.c. once daily 7 days, 6 hours post final dose, compared to Actb
[12] = wildtype mice, 10 mg/kg s.c. once daily 7 days, 6 hours post final dose, compared to Gapdh

CN1CCc2cccc3c2[C@@H]1Cc1ccc(O)c(O)c1-3 [(6aS)-6-methyl-5,6,6a,7-tetrahydro-4H-dibenzo[de,g]quinoline-10,11-diol]
dose at which HSF1 regulated genes are activated (HSF1 regulated genes [1]; mice, s.c. once daily 7 days, Example 2): ≥ 0.5 mg/kg
Dlg4 gene induction (HSF1 regulated genes [1]; 6 hours post final dose): 1.46 fold
Dnajba gene induction (HSF1 regulated genes [1]; 6 hours post final dose): 1.31 fold
Hspa1a gene induction (HSF1 regulated genes [1]; 6 hours post final dose): 1.84 fold
Hspa8 gene induction (HSF1 regulated genes [1]; 6 hours post final dose): 1.56 fold
Syn1 gene induction (HSF1 regulated genes [1]; 6 hours post final dose): 1.68 fold
Dlg4 gene induction (HSF1 regulated genes [1]; 24 hours post final dose): 0.90 fold
Dnajba gene induction (HSF1 regulated genes [1]; 24 hours post final dose): 1.17 fold
Hspa1a gene induction (HSF1 regulated genes [1]; 24 hours post final dose): 2.25 fold
Hspa8 gene induction (HSF1 regulated genes [1]; 24 hours post final dose): 2.62 fold
Syn1 gene induction (HSF1 regulated genes [1]; 24 hours post final dose): 1.47 fold
Gclm gene induction (NRF2 [2]; 5 mg/kg s.c. once daily 7 days, 6 hours post final dose, compared to Gapdh): 1.5 fold
Gclm gene induction (NRF2 [2]; [7]): 1.5 fold
Nqo1 gene induction (NRF2 [2]; [7]): 1.3 fold
Gclm gene induction (NRF2 [2]; 10 mg/kg s.c. once daily 7 days, 6 hours post final dose, compared to Actb): 1.4 fold
Gclm gene induction (NRF2 [2]; [8]): 1.2 fold
NRF2-responsive gene induction (NRF2 [2]; [8]): 1.4 fold
dose at which HSF1 regulated genes are activated (Hspa1a and Dnajb1 gene inductions) (HSF1 regulated genes [3]; mice, s.c. once daily 7 days, Example 1): ≥ 0.5 mg/kg
Hspa1a gene induction (HSF1 regulated genes [3]; [9]): 2.3 fold
Pgc1a gene induction (HSF1 regulated genes [3]; [9]): 1.7 fold
Hspa1a gene induction (HSF1 regulated genes [3]; [10]): 2.3 fold
Pgc1a gene induction (HSF1 regulated genes [3]; [10]): 1.7 fold
Hspa1a gene induction (HSF1 regulated genes [3]; [11]): 2.0 fold
Pgc1a gene induction (HSF1 regulated genes [3]; [11]): 1.5 fold
Dnajb1 gene induction (HSF1 regulated genes [3]; [12]): 1.3 fold
Hspa1a gene induction (HSF1 regulated genes [3]; [12]): 2.2 fold
Pgc1a gene induction (HSF1 regulated genes [3]; wildtype mice, repeated dose of 5 mg/kg s.c. once daily 7 days, compared to Gapdh (6 hours post final dose per preceding sentence)): 1.8 fold
gait parameters (time spent on diagonal paws, on three or four paws) from 3 to 6 months (TDP-43^Q331K mouse model [4]; 2.5 mg/kg dosing group): relatively stable
change in percentage of time spent on 3 paws between 3 months and 6 months of age, compared to vehicle (TDP-43^Q331K mouse model [4]; 2.5 mg/kg twice daily): significant decrease
change in percentage of time spent on diagonal paws between 3 months and 6 months of age (TDP-43^Q331K mouse model [4]; 2.5 mg/kg twice daily, significant difference to vehicle, which has a decrease): slight increase
gait parameters (time spent on diagonal paws, on three or four paws) from 3 to 6 months (TDP-43^Q331K mouse model [4]; 5 mg/kg dosing group): relatively stable
effect on swimming gait (base of support increasing with age) (TDP-43^Q331K mouse model [4]; 3 and 6 months of age): did not limit this swimming gait
rotarod performance (latency to fall) compared to vehicle dosed animals (TDP-43^Q331K mouse model [5]): significant increase
Gclm gene induction (NRF2 [6]; 6 hours post final dose): 1.51 fold
Hmox1 gene induction (NRF2 [6]; 6 hours post final dose): 2.02 fold
Nqo1 gene induction (NRF2 [6]; 6 hours post final dose): 1.04 fold
Nrf1 gene induction (NRF2 [6]; 6 hours post final dose): 2.39 fold
Pgc1a gene induction (NRF2 [6]; 6 hours post final dose): 1.71 fold
Gclm gene induction (NRF2 [6]; 24 hours post final dose): 1.45 fold
Hmox1 gene induction (NRF2 [6]; 24 hours post final dose): 2.11 fold
Nqo1 gene induction (NRF2 [6]; 24 hours post final dose): 1.32 fold
Nrf1 gene induction (NRF2 [6]; 24 hours post final dose): 1.58 fold
Pgc1a gene induction (NRF2 [6]; 24 hours post final dose): 1.70 fold
activity on dopamine receptors (in words) (dopamine receptors): weak dopamine antagonist
